Where “and” joins values, the source holds several entries; their conditions need not be identical. Equal entries are not always repeated. Where two headings read alike, the source gives them in different places.

For one data set, the target named is T1, full-length VicK protein (Streptococcus pneumoniae, UniProt Q8DPL8).
T1 construct: 6 His; made in house
Description: Inhibition assay for ATPase activity of VicK (Kinase-Glo Luminescent Kinase Assay). In kind it is biochemical. The settings on record: 6 μg VicK, 5 μM ATP, read-out: IC50 (inhibition of VicK ATPase activity / autophosphorylation) (converted). On the procedure: The inhibitory activities of the Chinese medicine monomers for the ATPase activity of the full-length VicK protein were evaluated using the Kinase-Glo™Luminescent Kinase Assay (Promega, Madison, USA). Briefly, 6 μg VicK protein was pre-incubated with a series of dilution of compounds in the reaction buffer at 37°C for 30 min. 5 μM ATP was added and incubated for another 30 min. Kinase-Glo™Reagent was also added to detect the remaining ATP recorded from luminescence measurements (RLU). In parallel, the VicK protein with no addition of compounds was used as a control, and the mixture with compounds excluding the VicK protein served as another control. The rate of protein phosphorylation (Rp) inhibition by the compounds was calculated from Equation (1).
(1) Rp=1−RLU(compound+ATP+Reagent) −RLU(compound+ATP+vick+Reagent)/RLU(ATP +Reagent)−RLU(ATP+vick+Reagent)×100%
The half maximal inhibitory concentration (IC50), which is the concentration of inhibition of 50% VicK protein autophosphorylation, was determined by GraphPad Prism 5 (Qin et al., [2006]).
A general note: In Kinase-Glo more light means more ATP remaining.

For data set [1], the system named is S. pneumoniae NCTC7466. Description: MIC against S. pneumoniae NCTC7466 (D39). In kind it is cell-based. The note with it: Streptococcus pneumoniae, NCTC7466. On the procedure:
(§1) Minimum inhibitory concentration (MIC) assays for the antibacterial activities of the compounds were performed according to the standard […] method of the Clinical and Laboratory Standards Institute of America. MIC testing of drug-resistant S. pneumoniae, drug-resistant S. aureus, streptococci and antimicrobial combination was also performed using the same method. Briefly, the drugs were serially diluted 2-fold into eight wells with C+Y medium, yielding final concentrations ranging from […]. Then 10^6 CFU bacteria were added to each well. Inoculated medium containing 1% DMSO served as a bacterial growth control, whereas uninoculated medium served as a sterility control. The plates were incubated at 37°C for 12–16 h. […] The experiment was repeated three times.

A further data set relates to pneumococcal strains. Description: MIC against clinical pneumococcal strains (penicillin susceptible, intermediate, resistant). The settings on record: for MIC50 / MIC90: Streptococcus pneumoniae. In kind it is cell-based, Streptococcus pneumoniae. The procedure: as §1
A further data set relates to S. pyogenes. The data set can be described thus: MIC against S. pyogenes. In kind it is cell-based. The note with it: Streptococcus pyogenes. The procedure: as §1
For a further data set, the system named is S. mitis. Description: MIC against S. mitis. In kind it is cell-based. The settings on record: Streptococcus mitis. The procedure:
as §1

The test system of another data set is S. mutans. The data set can be described thus: MIC against S. mutans. The format is cell-based. The settings on record: Streptococcus mutans. On the procedure: as §1
For a further data set, the system named is S. pseudopneumoniae. Description: MIC against S. pseudopneumoniae. In kind it is cell-based. The note with it: Streptococcus pseudopneumoniae. On the procedure: as §1
Another data set in a line: Cytotoxicity assay (MTT). The format is cell-based. The settings on record: African green monkey, Vero cells. The procedure:
The cytotoxicity of the drugs to Vero cells (African green monkey kidney cells) was detected as previously described (Huang et al., [2012]) with minor modifications. In 96-well cell culture plates, the cells (~10^3 cells per well) were exposed to the serially diluted drugs for 48 h. Then, relative cell numbers were assayed by co-incubation with 3-(4, 5-dimethylthiazol-2-yl)-2, 5-diphenyltetrazolium bromide for 4 h at 37°C in 5% CO2. Purple formazan salts were dissolved with DMSO after incubation. The absorbance of each well was measured at 595 nm and then converted to percentages of the control (cells treated with 1% DMSO). The concentration of the derivatives with 50% cytotoxicity for Vero cells (CC50) was calculated using GraphPad Prism 5 (San Diego, CA).

Data set [2] concerns S. pneumoniae NCTC7466. The data set can be described thus: Mouse sepsis model, survival time. The settings on record: i.p. infection 1 × 10^3 CFU, drug i.p. thrice a day for 3 d, untreated control 28.8 ± 1.25. In kind it is in vivo, BALB/c mice. The procedure: Female BALB/c mice (12–15 per group) aged 4–6 weeks were used to evaluate the antimicrobial effects of the compounds in vivo. In sepsis models, the mice were intraperitoneally infected with 100 μL S. pneumoniae NCTC7466 strain suspension (1 × 10^3 CFU). […] Two control groups were injected with 100 μL 1% DMSO (dissolved the drugs, negative control) or PEN (0.42 mg/kg/d, positive control) following the same injection route. The result was expressed as cumulative survival times following 7 d of observation.

Data set [3] deals with Penicillin-resistant S. pneumoniae strains. The data set can be described thus: Checkerboard test with penicillin against penicillin-resistant S. pneumoniae. In kind it is cell-based, Streptococcus pneumoniae. The settings on record: agent alone; for MIC: Streptococcus pneumoniae. The procedure:
as §1
(§2) The antimicrobial effects of different combinations of two antimicrobial agents were assayed using the checkerboard test (Bajaksouzian et al., [1997]). Each experiment was repeated thrice. The in vitro interaction between the five drugs with PEN was quantified by the fractional inhibitory concentration (FIC). The FIC index (FICI) was calculated using the following formula:
(§3) (2) FIC=FICA+FICB=[A]/MICA+[B]/MICB
(§4) where [A] and [B] are the concentrations of drugs A and B, respectively; MICA and FICA are the MIC and FIC of drug A for the organism, respectively; and MICB, and FICB are the MIC and FIC of drug B for the organism, respectively. The FIC index obtained was interpreted as follows: =0.5, synergy; FIC > 2.0, antagonism (Gupta and Kohli, [2003]).

In a further data set the test system is S. pneumoniae. The data set can be described thus: Checkerboard test with erythromycin or tetracycline against S. pneumoniae. In kind it is cell-based, Streptococcus pneumoniae. On the procedure:
The antimicrobial effects of different combinations of two antimicrobial agents were assayed using the checkerboard test (Bajaksouzian et al., [1997]). Each experiment was repeated thrice. […] The FIC index (FICI) was calculated using the following formula:
as §3, §4

The next data set has as its system S. aureus. The data set can be described thus: Checkerboard test with penicillin against S. aureus. The format is cell-based, Staphylococcus aureus. The note with it: agent alone. The procedure: as §1, §2, §3, §4
Data set [4] has as its system clinical S. pneumoniae 19A (CMCC31689). Description: Mouse colonization model, serotype 19A. In kind it is in vivo, BALB/c mice. The settings on record: 19A. On the procedure: (§5) In colonization models, the mice were intranasally challenged by 20 μL of clinical drug-resistant strains (pneumococcal serotype 19F or 19A, 1.5 × 10^8 CFU). An hour later, the mice were intraperitoneally injected with 100 μL drugs (2 × MIC) alone or in combination with PEN (2 × MIC). These injections were continued thrice a day for 3 d. Nasal wash and lung tissues were obtained to analyze the bacteria load at 24, 48, and 72 h after drug infection. Then 100 μL aliquots of the samples diluted were plated on blood agar plates. The colonies were counted after incubation overnight at 37°C with 5% CO2.

In data set [5] the test system is clinical S. pneumoniae 19F (CMCC31693). Description: Mouse colonization model, serotype 19F. The format is in vivo, BALB/c mice. The settings on record: 19F. The procedure: as §5
[6] abbreviates: in combination with Erythromycin.

T1 sequence (Q8DPL8 whole entry): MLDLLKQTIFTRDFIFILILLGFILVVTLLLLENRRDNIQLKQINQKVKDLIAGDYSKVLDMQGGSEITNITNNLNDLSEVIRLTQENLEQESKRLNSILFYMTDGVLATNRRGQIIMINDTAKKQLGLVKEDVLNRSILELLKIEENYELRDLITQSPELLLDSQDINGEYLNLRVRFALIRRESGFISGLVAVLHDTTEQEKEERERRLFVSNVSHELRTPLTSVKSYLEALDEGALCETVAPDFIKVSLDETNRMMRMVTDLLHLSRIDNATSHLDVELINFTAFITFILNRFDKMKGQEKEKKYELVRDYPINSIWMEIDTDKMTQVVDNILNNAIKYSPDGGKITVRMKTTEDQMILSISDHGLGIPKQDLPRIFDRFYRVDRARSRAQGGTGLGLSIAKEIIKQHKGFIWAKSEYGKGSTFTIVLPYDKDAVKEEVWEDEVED

By MIC is commonly meant the least concentration at which growth counts as inhibited. A word on the MIC50: it is the lowest concentration that inhibits either 50% of growth or 50% of the strains tested, depending on the study. The term MIC90 denotes an inhibitory concentration at the 90% level, which refers to growth in some studies and to a panel of isolates in others. Usually CC50 stands for the concentration giving 50% cytotoxicity. Low readings indicate greater toxicity to the cells, high ones lower toxicity to the cells. `COC1=CC(=O)O[C@@H](/C=C/c2ccc3c(c2)OCO3)C1` [Compound 4, Kavahin]: the IC50 on full-length VicK protein was 4.6 µM; on full-length VicK protein (value in parentheses), 4.56 µM. For the same compound, the MIC in the data set with S. pneumoniae NCTC7466 [1] was 68.5 µg/mL and 250 µM; with S. pyogenes it was 274 µg/mL; in the data set with S. mitis, 274 µg/mL; in the data set on S. mutans, 274 µg/mL; in the data set with S. pseudopneumoniae it was 34 µg/mL; in data set [3] (read-out: MIC, Alone, strain 652336), 548 µg/mL. For the same compound, the MIC came out at 274 µg/mL in data set [3] (read-out: MIC, Alone, strain 736007); 548 µg/mL in [3] (read-out: MIC, Alone, strain 8364981); 274 µg/mL in data set [3] (read-out: MIC, Alone, strain 12092624). Also, the “MIC of pneumococcal strains, Range” value with pneumococcal strains (Penicillin intermediate (n = 12)) is 68 to 518 µg/mL; in the data set on pneumococcal strains (Penicillin resistant (n = 15)) it was 68.5 to 548 µg/mL; with pneumococcal strains (Penicillin susceptible (n = 7)), 34 to 272 µg/mL. For the same compound, the MIC50 worked out at 137 µg/mL in the data set on pneumococcal strains (read-out: MIC of pneumococcal strains, MIC50, Penicillin intermediate (n = 12)); 274 µg/mL in the data set with pneumococcal strains (read-out: MIC of pneumococcal strains, MIC50, Penicillin resistant (n = 15)); 68.5 µg/mL in the data set with pneumococcal strains (read-out: MIC of pneumococcal strains, MIC50, Penicillin susceptible (n = 7)). Further, the MIC90 with pneumococcal strains (read-out: MIC of pneumococcal strains, MIC90, Penicillin intermediate (n = 12)) was 274 µg/mL; with pneumococcal strains (read-out: MIC of pneumococcal strains, MIC90, Penicillin resistant (n = 15)), 548 µg/mL; in the data set with pneumococcal strains (read-out: MIC of pneumococcal strains, MIC90, Penicillin susceptible (n = 7)), 136 µg/mL. In the data set “Cytotoxicity assay (MTT)”, this compound came in with a cytotoxic concentration (CC50) at 48 h of over 8000 µM. Further, the “Mean survival of mice ± SEM” value in the data set with S. pneumoniae NCTC7466 [2] (listed as Kavahin) came to 71.1 ± 7.1 h; in the data set with S. pneumoniae NCTC7466 [2] (listed as kavahin), 71 h. Besides, the FICI turned out to be 0.5 in the data set with S. pneumoniae (setting [6]) and 0.51 in the data set with S. pneumoniae (in combination with Tetracycline). In addition, the Outcome result with S. pneumoniae (setting [6]) was “Synergy (=0.5, synergy)”.

With `CC1(C)S[C@@H]2[C@H](NC(=O)Cc3ccccc3)C(=O)N2[C@H]1C(=O)O` [Penicillin, penicillin, reference compound], the “MIC, Alone” value in data set [3] (strain 652336) turned out to be 4.4 µg/mL; in [3] (strain 736007), 7.1 µg/mL; in data set [3] (strain 8364981), 3.56 µg/mL; in [3] (strain 12092624), 3.56 µg/mL; in the data set on S. aureus (MRSA8506305), 6682 µg/mL; with S. aureus (MRSA8548991) it was 3339 µg/mL. The “MIC, Alone” value in the data set with S. aureus (S. aureus ATCC29213) came to 52 µg/mL. Moreover, the “Mean log CFU at site of infection” value in data set [4] (Lung, 24 h, control 4.85) is on record as 4.8 log CFU; in [4] (Lung, 48 h, control 6.12) it was 4.5 log CFU; in data set [4] (Lung, 72 h, control 6.29), 4.89 log CFU; in data set [4] (NW (nasal wash), 24 h, i.p. three times a day for 3 days, control 7.29) it was 6.44 log CFU; in data set [4] (NW, 48 h, control 5.97), 5.88 log CFU; in data set [4] (NW, 72 h, control 6.01), 5.34 log CFU. In addition, the “Mean log CFU at site of infection” value in data set [5] (Lung, 24 h, control 2.82) worked out at 1 log CFU; in data set [5] (Lung, 48 h, control 7.57), 2.58 log CFU; in data set [5] (Lung, 72 h, control 4.95) it was 3.22 log CFU; in data set [5] (NW (nasal wash), 24 h, i.p. three times a day for 3 days, control 6.72), 6.21 log CFU; in data set [5] (NW, 48 h, control 6.27), 2.1 log CFU; in data set [5] (NW, 72 h, control 7.09) it was 6.12 log CFU.

Source of the values: PMC4438233, “Antibacterial effects of Traditional Chinese Medicine monomers against Streptococcus pneumoniae via inhibiting pneumococcal histidine kinase (VicK)” (Frontiers in Microbiology, 2015).
